What was measured:
Experiment in all cases: cells
[1] = tested on: OCI-AML2; format: functional, cell-based; conditions: Homo sapiens;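 also: growth inhibition of OCI-AML2 cells, read out with a cell viability assay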
Description: SANGER: Inhibition of human OCI-AML2 cell growth in a cell viability assay.

[2] = tested on: HCC38; format: functional, cell-based, Homo sapiens; conditions: Homo sapiens, HCC38;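 also: cell viability assay on the human HCC38 cell line, with IC50 marking the concentration that inhibits cell growth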
Description: SANGER: Inhibition of human HCC38 cell growth in a cell viability assay.

[3] = tested on: NB14; format: functional, cell-based; conditions: Homo sapiens;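 also: growth inhibition of NB14 cells measured with a cell viability assay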
Description: SANGER: Inhibition of human NB14 cell growth in a cell viability assay.

[4] = tested on: ETK-1; format: functional, cell-based, Homo sapiens; conditions: Homo sapiens, ETK-1;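 also: growth inhibition of human ETK-1 cells, read out with a cell viability assay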
Description: SANGER: Inhibition of human ETK-1 cell growth in a cell viability assay.

[5] = tested on: LS-1034; format: functional, cell-based, Homo sapiens; conditions: Homo sapiens, LS-1034
Description: SANGER: Inhibition of human LS-1034 cell growth in a cell viability assay.

[6] = tested on: JEG-3; format: functional, cell-based, Homo sapiens; conditions: Homo sapiens, JEG-3;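 also: growth inhibition of human JEG-3 cells, read out with a cell viability assay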
Description: SANGER: Inhibition of human JEG-3 cell growth in a cell viability assay.

[7] = tested on: KYSE-140; format: functional, cell-based, Homo sapiens; conditions: Homo sapiens, KYSE-140;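 also: cell viability assay measuring growth inhibition in human KYSE-140 cells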
Description: SANGER: Inhibition of human KYSE-140 cell growth in a cell viability assay.

[8] = tested on: ALL-PO; format: functional, cell-based; conditions: Homo sapiens;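 also: growth inhibition of ALL-PO cells, read out by a cell viability assay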
Description: SANGER: Inhibition of human ALL-PO cell growth in a cell viability assay.

[9] = tested on: CAL-85-1; format: functional, cell-based; conditions: Homo sapiens;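 also: growth inhibition of human CAL-85-1 cells, read out with a cell viability assay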
Description: SANGER: Inhibition of human CAL-85-1 cell growth in a cell viability assay.

[10] = tested on: U-118-MG; format: functional, cell-based, Homo sapiens; conditions: Homo sapiens, U-118-MG
Description: SANGER: Inhibition of human U-118-MG cell growth in a cell viability assay.

[11] = tested on: OMC-1; format: functional, cell-based, Homo sapiens; conditions: Homo sapiens, OMC-1;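 also: growth inhibition of the OMC-1 cell line, measured by a cell viability assay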
Description: SANGER: Inhibition of human OMC-1 cell growth in a cell viability assay.

[12] = tested on: KU812 cell line; format: functional, cell-based; conditions: Homo sapiens;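 also: growth inhibition of KU812 cells, read out with a cell viability assay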
Description: SANGER: Inhibition of human KU812 cell growth in a cell viability assay.

[13] = tested on: COLO-320-HSR; format: functional, cell-based; conditions: Homo sapiens;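 also: growth inhibition of COLO-320-HSR cells, determined with a cell viability assay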
Description: SANGER: Inhibition of human COLO-320-HSR cell growth in a cell viability assay.

[14] = tested on: CCRF-CEM; format: functional, cell-based; conditions: Homo sapiens;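 also: inhibition of CCRF-CEM cell growth, measured by a cell viability assay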
Description: SANGER: Inhibition of human CCRF-CEM cell growth in a cell viability assay.

[15] = tested on: MDA-MB-157; format: functional, cell-based, Homo sapiens; conditions: Homo sapiens, MDA-MB-157
Description: SANGER: Inhibition of human MDA-MB-157 cell growth in a cell viability assay.

[16] = tested on: NCI-H1355; format: functional, cell-based, Homo sapiens; conditions: Homo sapiens, NCI-H1355;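 also: growth inhibition of human NCI-H1355 cells, read out by a cell viability assay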
Description: SANGER: Inhibition of human NCI-H1355 cell growth in a cell viability assay.

[17] = tested on: SW1783; format: functional, cell-based; conditions: Homo sapiens;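 also: cell growth inhibition measured with a viability assay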
Description: SANGER: Inhibition of human SW1783 cell growth in a cell viability assay.

[18] = tested on: KYSE-270; format: functional, cell-based, Homo sapiens; conditions: Homo sapiens, KYSE-270;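 also: cell growth inhibition measured with a viability assay in the human KYSE-270 line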
Description: SANGER: Inhibition of human KYSE-270 cell growth in a cell viability assay.

[19] = tested on: MDA-MB-231; format: functional, cell-based, Homo sapiens; conditions: Homo sapiens, MDA-MB-231
Description: SANGER: Inhibition of human MDA-MB-231 cell growth in a cell viability assay.

[20] = tested on: NUGC-3; format: functional, cell-based, Homo sapiens; conditions: Homo sapiens, NUGC-3;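 also: growth inhibition of human NUGC-3 cells, read out with a cell viability assay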
Description: SANGER: Inhibition of human NUGC-3 cell growth in a cell viability assay.

[21] = tested on: UMUC3; format: functional, cell-based, Homo sapiens; conditions: Homo sapiens, UMUC3;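 also: growth inhibition of human UM-UC-3 cells, read out with a cell viability assay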
Description: SANGER: Inhibition of human UM-UC-3 cell growth in a cell viability assay.

[22] = tested on: NCI-H596; format: functional, cell-based, Homo sapiens; conditions: Homo sapiens, NCI-H596;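 also: growth inhibition of NCI-H596 cells, read out with a cell viability assay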
Description: SANGER: Inhibition of human NCI-H596 cell growth in a cell viability assay.

[23] = tested on: RERF-LC-MS; format: functional, cell-based, Homo sapiens; conditions: Homo sapiens, RERF-LC-MS;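 also: growth inhibition of human RERF-LC-MS cells, read out by a cell viability assay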
Description: SANGER: Inhibition of human RERF-LC-MS cell growth in a cell viability assay.

[24] = tested on: TK-10; format: functional, cell-based, Homo sapiens; conditions: Homo sapiens, TK-10;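 also: growth inhibition of TK-10 cells, read out in a cell viability assay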
Description: SANGER: Inhibition of human TK10 cell growth in a cell viability assay.

[25] = tested on: GI-1; format: functional, cell-based, Homo sapiens; conditions: Homo sapiens, GI-1;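 also: growth inhibition of human GI-1 cells, measured with a cell viability readout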
Description: SANGER: Inhibition of human GI-1 cell growth in a cell viability assay.

[26] = tested on: HSC-3; format: functional, cell-based, Homo sapiens; conditions: Homo sapiens, HSC-3
Description: SANGER: Inhibition of human HSC-3 cell growth in a cell viability assay.

[27] = tested on: RPMI-7951; format: functional, cell-based, Homo sapiens; conditions: Homo sapiens, RPMI-7951
Description: SANGER: Inhibition of human RPMI-7951 cell growth in a cell viability assay.

[28] = tested on: EW-18; format: functional, cell-based; conditions: Homo sapiens;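 also: growth inhibition of EW-18 cells, read out by a cell viability assay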
Description: SANGER: Inhibition of human EW-18 cell growth in a cell viability assay.

[29] = tested on: BB30-HNC; format: functional, cell-based, Homo sapiens; conditions: Homo sapiens, BB30-HNC;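 also: growth inhibition of the cultured cell line, read out by a cell viability assay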
Description: SANGER: Inhibition of human BB30-HNC cell growth in a cell viability assay.

[30] = tested on: COLO-824; format: functional, cell-based, Homo sapiens; conditions: Homo sapiens, COLO-824
Description: SANGER: Inhibition of human COLO-824 cell growth in a cell viability assay.

[31] = tested on: SCC-15; format: functional, cell-based, Homo sapiens; conditions: Homo sapiens, SCC-15;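 also: growth inhibition of SCC-15 cells, read out with a cell viability assay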
Description: SANGER: Inhibition of human SCC-15 cell growth in a cell viability assay.

[32] = tested on: KARPAS-45; format: functional, cell-based; conditions: Homo sapiens;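 also: inhibition of cell line growth, read out through a viability assay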
Description: SANGER: Inhibition of human KARPAS-45 cell growth in a cell viability assay.

[33] = tested on: ATN-1; format: functional, cell-based; conditions: Homo sapiens;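 also: growth inhibition of human ATN-1 cells, read out with a cell viability assay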
Description: SANGER: Inhibition of human ATN-1 cell growth in a cell viability assay.

[34] = tested on: UO-31; format: functional, cell-based; conditions: Homo sapiens;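 also: cell viability assay measuring inhibition of cell growth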
Description: SANGER: Inhibition of human U031 cell growth in a cell viability assay.

[35] = tested on: EKVX; format: functional, cell-based, Homo sapiens; conditions: Homo sapiens, EKVX;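 also: growth inhibition of human EKVX cells, read out with a cell viability assay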
Description: SANGER: Inhibition of human EKVX cell growth in a cell viability assay.

[36] = tested on: COLO-668; format: functional, cell-based, Homo sapiens; conditions: Homo sapiens, COLO-668
Description: SANGER: Inhibition of human COLO-668 cell growth in a cell viability assay.

[37] = tested on: COLO-684; format: functional, cell-based; conditions: Homo sapiens
Description: SANGER: Inhibition of human COLO-684 cell growth in a cell viability assay.

[38] = tested on: TE-8; format: functional, cell-based, Homo sapiens; conditions: Homo sapiens, TE-8;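 also: growth inhibition of TE-8 cells, measured with a cell viability readout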
Description: SANGER: Inhibition of human TE-8 cell growth in a cell viability assay.

[39] = tested on: SiHa; format: functional, cell-based, Homo sapiens; conditions: Homo sapiens, SiHa;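 also: Viability-based readout of growth inhibition in SiHa cells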
Description: SANGER: Inhibition of human SiHa cell growth in a cell viability assay.

[40] = tested on: HCC1187; format: functional, cell-based, Homo sapiens; conditions: Homo sapiens, HCC1187;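 also: growth inhibition of HCC1187 cells, read out with a cell viability assay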
Description: SANGER: Inhibition of human HCC1187 cell growth in a cell viability assay.

[41] = tested on: NB69; format: functional, cell-based, Homo sapiens; conditions: Homo sapiens, NB69;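 also: growth inhibition of NB69 cells, determined by a cell viability assay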
Description: SANGER: Inhibition of human NB69 cell growth in a cell viability assay.

[42] = tested on: SK-LU-1; format: functional, cell-based, Homo sapiens; conditions: Homo sapiens, SK-LU-1;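 also: cell viability assay measuring growth inhibition of human SK-LU-1 cells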
Description: SANGER: Inhibition of human SK-LU-1 cell growth in a cell viability assay.

[43] = tested on: T84; format: functional, cell-based, Homo sapiens; conditions: Homo sapiens, T84;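 also: growth inhibition measured with a cell viability readout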
Description: SANGER: Inhibition of human T84 cell growth in a cell viability assay.

[44] = tested on: NCI-H1304; format: functional, cell-based; conditions: Homo sapiens;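 also: growth inhibition of the cancer cell line, measured in a cell viability assay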
Description: SANGER: Inhibition of human NCI-H1304 cell growth in a cell viability assay.

[45] = tested on: NCI-H292; format: functional, cell-based, Homo sapiens; conditions: Homo sapiens, NCI-H292;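 also: growth inhibition of NCI-H292 cells, read out with a cell viability assay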
Description: SANGER: Inhibition of human NCI-H292 cell growth in a cell viability assay.

[46] = tested on: SW626; format: functional, cell-based, Homo sapiens; conditions: Homo sapiens, SW626;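 also: growth inhibition of SW626 cells, measured with a cell viability assay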
Description: SANGER: Inhibition of human SW626 cell growth in a cell viability assay.

[47] = tested on: SK-PN-DW; format: functional, cell-based; conditions: Homo sapiens;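 also: growth inhibition measured with a viability assay on these cells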
Description: SANGER: Inhibition of human SK-PN-DW cell growth in a cell viability assay.

[48] = tested on: SW948; format: functional, cell-based, Homo sapiens; conditions: Homo sapiens, SW948;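 also: growth inhibition of SW948 cells, read out with a cell viability assay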
Description: SANGER: Inhibition of human SW948 cell growth in a cell viability assay.

[49] = tested on: NB13; format: functional, cell-based, Homo sapiens; conditions: Homo sapiens, NB13;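 also: cell viability readout measuring growth inhibition of human NB13 cells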
Description: SANGER: Inhibition of human NB13 cell growth in a cell viability assay.

[50] = tested on: MEL-HO; format: functional, cell-based, Homo sapiens; conditions: Homo sapiens, MEL-HO
Description: SANGER: Inhibition of human MEL-HO cell growth in a cell viability assay.

With `COc1ccc(-c2ccc3c(N4CCOC[C@@H]4C)nc(N4CCOC[C@@H]4C)nc3n2)cc1CO` [AZD-8055] as the compound, how does the IC50 [1] read?
The IC50 was > 2000 nM.

What about the IC50 [2] of the same compound?
The IC50 was > 2000 nM.

What about the IC50 [3] of the same compound?
The IC50 was 164 nM.

What about the IC50 [4] of the same compound?
The IC50 was 894 nM.

And the IC50 [5]?
Its IC50 is > 2000 nM.

And the IC50 [6]?
The IC50 was 1580 nM.

What about the IC50 [7] of the same compound?
The IC50 was 782 nM.

What about the IC50 [8] of the same compound?
The IC50 was 1440 nM.

What about the IC50 [9] of the same compound?
Its IC50 is 1530 nM.

What about the IC50 [10] of the same compound?
The IC50 was 1850 nM.

And the IC50 [11]?
The IC50 was 727 nM.

What about the IC50 [12] of the same compound?
The IC50 was 80.4 nM.

And the IC50 [13]?
The IC50 was > 2000 nM.

And the IC50 [14]?
Its IC50 is > 2000 nM.

What about the IC50 [15] of the same compound?
The IC50 was 678 nM.

What about the IC50 [16] of the same compound?
The IC50 was 539 nM.

And the IC50 [17]?
Its IC50 is > 2000 nM.

And the IC50 [18]?
The IC50 was 1570 nM.

And the IC50 [19]?
The IC50 was 1720 nM.

What about the IC50 [20] of the same compound?
Its IC50 is 707 nM.

What about the IC50 [21] of the same compound?
The IC50 was 1480 nM.

And the IC50 [22]?
The IC50 was 1260 nM.

What about the IC50 [23] of the same compound?
The IC50 was > 2000 nM.

What about the IC50 [24] of the same compound?
Its IC50 is 1360 nM.

And the IC50 [25]?
The IC50 was > 2000 nM.

What about the IC50 [26] of the same compound?
Its IC50 is 429 nM.

What about the IC50 [27] of the same compound?
The IC50 was 735 nM.

What about the IC50 [28] of the same compound?
The IC50 was 141 nM.

And the IC50 [29]?
Its IC50 is 1860 nM.

What about the IC50 [30] of the same compound?
Its IC50 is > 2000 nM.

What about the IC50 [31] of the same compound?
Its IC50 is 1170 nM.

What about the IC50 [32] of the same compound?
The IC50 was 33.7 nM.

And the IC50 [33]?
The IC50 was 706 nM.

What about the IC50 [34] of the same compound?
Its IC50 is > 2000 nM.

And the IC50 [35]?
The IC50 was 1140 nM.

And the IC50 [36]?
Its IC50 is > 2000 nM.

What about the IC50 [37] of the same compound?
Its IC50 is 457 nM.

What about the IC50 [38] of the same compound?
The IC50 was 1460 nM.

What about the IC50 [39] of the same compound?
The IC50 was > 2000 nM.

What about the IC50 [40] of the same compound?
The IC50 was > 2000 nM.

What about the IC50 [41] of the same compound?
The IC50 was 135 nM.

What about the IC50 [42] of the same compound?
Its IC50 is 392 nM.

And the IC50 [43]?
Its IC50 is > 2000 nM.

What about the IC50 [44] of the same compound?
The IC50 was > 2000 nM.

And the IC50 [45]?
Its IC50 is 292 nM.

And the IC50 [46]?
Its IC50 is > 2000 nM.

And the IC50 [47]?
The IC50 was 1760 nM.

What about the IC50 [48] of the same compound?
Its IC50 is > 2000 nM.

What about the IC50 [49] of the same compound?
Its IC50 is 1140 nM.

What about the IC50 [50] of the same compound?
Its IC50 is 678 nM.

Which results are given for `COc1cc(F)c(F)c(Nc2ccc(I)cc2F)c1NS(=O)(=O)C1(CC(O)CO)CC1` (stereo not given)?
IC50 [1]: > 5000 nM; IC50 [2]: > 5000 nM; IC50 [3]: > 5000 nM; IC50 [4]: 4240 nM; IC50 [5]: 1620 nM; IC50 [6]: > 5000 nM; IC50 [7]: 2900 nM; IC50 [8]: > 5000 nM; IC50 [9]: 3570 nM; IC50 [10]: > 5000 nM; IC50 [11]: > 5000 nM; IC50 [12]: 239 nM; IC50 [13]: > 5000 nM; IC50 [14]: > 5000 nM; IC50 [15]: > 5000 nM; IC50 [16]: > 5000 nM; IC50 [17]: > 5000 nM; IC50 [18]: > 5000 nM; IC50 [19]: 1120 nM; IC50 [20]: 4340 nM; IC50 [21]: > 5000 nM; IC50 [22]: > 5000 nM; IC50 [23]: 1330 nM; IC50 [24]: 2210 nM; IC50 [25]: > 5000 nM; IC50 [26]: 307 nM; IC50 [27]: 761 nM; IC50 [28]: 2770 nM; IC50 [29]: 1580 nM; IC50 [30]: > 5000 nM; IC50 [31]: > 5000 nM; IC50 [32]: 1140 nM; IC50 [33]: > 5000 nM; IC50 [34]: > 5000 nM; IC50 [35]: > 5000 nM; IC50 [36]: > 5000 nM; IC50 [37]: > 5000 nM; IC50 [38]: 1120 nM; IC50 [39]: > 5000 nM; IC50 [40]: > 5000 nM; IC50 [41]: 557 nM; IC50 [42]: > 5000 nM; IC50 [43]: > 5000 nM; IC50 [44]: > 5000 nM; IC50 [45]: 640 nM; IC50 [46]: 279 nM; IC50 [47]: > 5000 nM; IC50 [48]: > 5000 nM; IC50 [49]: > 5000 nM; IC50 [50]: 39.4 nM

From ChEMBL document CHEMBL1201861, “Genomics of Drug Sensitity in Cancer screening data, Wellcome Trust Sanger Institute”
